Laboratory results published in US9238571B2, “Formulations for c-Met kinase inhibitors” (Merck Sharp & Dohme Limited, priority 2009, dated 2016).

Tests used:
[1] = Clinical studies with Compound A (exposure among patients); format: in vivo
Description: The formulations of the instant invention have advantages over other formulations of c-Met kinase inhibitors. […] Based upon the sharp dependence of solubility on pH, it can be postulated that the performance of these formulations can vary based on variability in gastric pH. […] Exposure can vary due to many factors, including whether the inhibitor is taken with or without food. The formulations of the instant invention give in vivo exposures to the drug that are less sensitive to changes in gastric pH than other formulations.

[2] = Solubility measurements of Compound A HCl salt in 250 mL SGF with citric acid pre-dissolved; format: physicochemical
Description: FIG. 2 describes the solubility measurements for Compound A HCl salt in 250 mL of SGF with various amounts of citric acid anhydrous pre-dissolved.
Within this formulation the amount of citric acid anhydrous available is 160.44 mg (Target fill weight for the capsule is 382.0 mg)

variability in Compound A exposure among patients [1]: high variability
exposure in patients concomitantly taking antacids ([1]; some patients with high gastric pH (antacids)): lower exposures
maximum solubility ([2]; 300 mg of citric acid fully dissolved in 250 mL of SGF pH 3.0, Compound A HCl salt (FIG. 2)): approximately 15 mg
% dissolved equated from maximum solubility ([2]; for a 110 mg potency capsule, 300 mg citric acid pre-dissolved in 250 mL SGF pH 3.0): 14%
Compound: Cn1cc(-c2cnc3ccc4ccc(CS(=O)(=O)NCc5ccccn5)cc4c(=O)c3c2)cn1 [Compound A, 1-[3-(1-Methyl-1H-pyrazol-4-yl)-5-oxo-5H-benzo[4,5]cyclohepta[1,2-b]pyridin-7-yl]-N-(pyridin-2-ylmethyl)methanesulfonamide]
